Four molecules from PMC3504108 (PLoS ONE, 2012) can be followed below.

What is called EC50 is the midpoint of the concentration-response curve.

Experiment [1] deals with T1, Sirt3 (Homo sapiens, UniProt Q9NTG7).
T1 sequence (Q9NTG7 102-399): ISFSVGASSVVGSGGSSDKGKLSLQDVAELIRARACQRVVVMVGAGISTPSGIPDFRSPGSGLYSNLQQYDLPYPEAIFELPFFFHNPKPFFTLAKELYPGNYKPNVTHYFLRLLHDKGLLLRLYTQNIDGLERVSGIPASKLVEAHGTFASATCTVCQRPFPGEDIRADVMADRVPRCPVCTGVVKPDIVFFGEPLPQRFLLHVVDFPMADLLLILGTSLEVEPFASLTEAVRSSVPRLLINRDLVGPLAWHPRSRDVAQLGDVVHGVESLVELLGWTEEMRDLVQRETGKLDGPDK
Description: ELISA-based deacetylation assay (Figure S3B). It counts as biochemical. On the technique in general: ELISA stands for enzyme-linked immunosorbent assay.

Experiment [2] concerns the target T2, Sirt5 (Homo sapiens, UniProt Q9NXA8).
T2 construct: catalytic core, residues 34–302
T2 sequence (Q9NXA8 34-302): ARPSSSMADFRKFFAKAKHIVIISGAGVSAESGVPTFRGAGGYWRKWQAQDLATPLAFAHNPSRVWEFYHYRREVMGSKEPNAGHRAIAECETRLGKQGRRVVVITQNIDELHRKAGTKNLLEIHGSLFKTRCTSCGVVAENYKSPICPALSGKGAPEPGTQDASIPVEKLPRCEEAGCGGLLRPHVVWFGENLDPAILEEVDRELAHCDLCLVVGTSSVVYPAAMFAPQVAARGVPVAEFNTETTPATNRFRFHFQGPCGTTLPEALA
As to the kind of experiment: ELISA-based deacetylation assay (weak inhibition, Figure S3B). It counts as biochemical.

For experiment [3], the target named is T2, Sirt5. Description: FdL1 fluorogenic deacetylation assay (activation dose-response). It counts as biochemical.
Experiment [4] addresses T3, Sirt3 (Homo sapiens, UniProt Q9NTG7).
T3 construct: catalytic core, residues 118–399
T3 sequence (Q9NTG7 118-399): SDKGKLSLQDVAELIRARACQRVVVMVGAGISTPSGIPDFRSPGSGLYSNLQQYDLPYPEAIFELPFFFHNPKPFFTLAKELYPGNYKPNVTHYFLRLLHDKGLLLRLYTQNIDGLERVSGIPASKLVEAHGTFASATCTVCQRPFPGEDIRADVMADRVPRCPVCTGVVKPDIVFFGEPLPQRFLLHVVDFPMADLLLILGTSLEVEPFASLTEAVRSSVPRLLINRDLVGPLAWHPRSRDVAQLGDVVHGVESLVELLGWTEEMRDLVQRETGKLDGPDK
As to the kind of experiment: X-ray crystal structure ([…] Å, ternary with FdL1 peptide), plus FdL2 deacetylation inhibition. The class given is binding.

In experiment [5] the target is T2, Sirt5. Description: X-ray crystal structure ([…] Å, ternary with FdL1 peptide; ligand occupancy […]), plus deacetylase activation assays. The class given is binding.
The target of experiment [6] is T2, Sirt5. As to the kind of experiment: Cytochrome c deacetylation ELISA (activation, Figure S3A). The class given is biochemical.

As for `O=c1c(O)c(-c2ccc(O)c(O)c2)oc2cc(O)ccc12` [fisetin], the “ELISA-based deacetylation assay (Figure S3B)” value at Sirt3 [1] was “only fisetin shows a weak inhibitory effect on Sirt5 and significant inhibition of Sirt3 in an ELISA-based deacetylation assay”. The “ELISA-based deacetylation assay (weak inhibition, Figure S3B)” value at Sirt5 [2] is listed as “only fisetin shows a weak inhibitory effect on Sirt5”.

On to `Oc1cc(O)cc(/C=C/c2ccc(O)c(O)c2)c1` [piceatannol], for which the half-maximal effective concentration (EC50) at Sirt5 [3] amounted to 70 ± 20 µM. The “X-ray crystal structure (2.3 Å, ternary with FdL1 peptide), plus FdL2 deacetylat” value on Sirt3 [4] was “we also solved the crystal structure of Sirt3 in complex with FdL1-peptide and piceatannol”.

As to `Oc1ccc(/C=C/c2cc(O)cc(O)c2)cc1` [resveratrol], the “X-ray crystal structure (2.6 Å, ternary with FdL1 peptide); ligand occupancy ~50%” value at Sirt5 [5] is “Co-ordinates and structure factors of Sirt5 in complex with FdL1-peptide and resveratrol”.

Consider `OCCc1ccc(O)cc1` [tyrosol, 4-(2-hydroxyethyl)phenol], for which the “Cytochrome c deacetylation ELISA (activation, Figure S3A)” value at Sirt5 [6] is recorded as “activates Sirt5 in a Cytochrome c deacetylation assay (see below, Figure S3A)”.
